# Measurements: US10722512B2, “Combinations of histone deacetylase inhibitors and either HER2 inhibitors or PI3K inhibitors” (Acetylon Pharmaceuticals, Inc., priority 2013, dated 2020)
# pIC50: −log10 of the molar value.
# Key:
# MDA-MB-453 [1] = assay: Potentiation effect of HDAC6 inhibitors on Her2+ breast cancer cell lines; format: cell-based; conditions: for cytotoxicity of HDAC6 inhibitor alone: MDA-MB-453, at the tested concentrations
# Procedure: (§1) The IC50 (Inhibitory Concentration at which 50% of the cells are viable) values of these 4 anti-breast cancer compounds were calculated in the presence of increasing concentrations of a HDAC6 inhibitor.
# BT-474 = assay: as above; format: cell-based; conditions: for cytotoxicity of HDAC6 inhibitor alone: BT-474, at the tested concentrations
# Procedure: as §1
# T-47D* = assay: Breast cancer cell viability, 48 hours, MTA assay; format: cell-based; conditions: Homo sapiens, T47D, 48 h
# From the text: (§2) Cell viabilities were used to calculate “Fraction Affected” (Fa) and “Combination Index” (CI) values using the Chou-Talalay method. Any combination with a CI value<0.70 at a Fa value between 0.25 and 0.75 was defined as positive synergy.
# MDA-MB-361 = assay: Breast cancer cell viability, 48 hours, MTA assay; format: cell-based; conditions: Homo sapiens, MDA-MB-361, 48 h
# From the text: as §2
# MDA-MB-231 = assay: Breast cancer cell viability, 48 hours, MTA assay; format: cell-based; conditions: Homo sapiens, MDA-MB-231, 48 h
# From the text: as §2
# MCF-7 = assay: Breast cancer cell viability, 48 hours, MTA assay; format: cell-based; conditions: Homo sapiens, MCF7, 48 h
# From the text: as §2
# MDA-MB-468 = assay: Breast cancer cell viability, 48 hours, MTA assay; format: cell-based; conditions: Homo sapiens, MDA-MB-468, 48 h
# From the text: as §2
# MX-1 = assay: Breast cancer cell viability, 48 hours, MTA assay; format: cell-based; conditions: Homo sapiens, MX1, 48 h
# From the text: as §2
# MDA-MB-436 = assay: Breast cancer cell viability, 48 hours, MTA assay; format: cell-based; conditions: Homo sapiens, MDA-MB-436, 48 h
# From the text: as §2
# HCC38 = assay: Breast cancer cell viability, 48 hours, MTA assay; format: cell-based; conditions: Homo sapiens, HCC38, 48 h
# From the text: as §2
# Hs578T = assay: Breast cancer cell viability, 48 hours, MTA assay; format: cell-based; conditions: Homo sapiens, Hs-578T, 48 h
# From the text: as §2
# MDA-MB-453 [2] = assay: Breast cancer cell viability, 48 hours, MTA assay; format: cell-based; conditions: Homo sapiens, MDA-MB-453, 48 h
# From the text: as §2
# BT474 = assay: Breast cancer cell viability, 48 hours, MTA assay; format: cell-based; conditions: Homo sapiens, BT-474, 48 h
# From the text: as §2
# Bcap-37 = assay: Breast cancer cell viability, 48 hours, MTA assay; format: cell-based; conditions: Homo sapiens, Bcap37, 48 h
# From the text: as §2
# BT-549 = assay: Breast cancer cell viability, 48 hours, MTA assay; format: cell-based; conditions: Homo sapiens, BT-549, 48 h
# From the text: as §2
# HCC1937 = assay: Breast cancer cell viability, 48 hours, MTA assay; format: cell-based; conditions: Homo sapiens, HCC1937, 48 h
# From the text: as §2
# ZR-75-1 = assay: Breast cancer cell viability, 48 hours, MTA assay; format: cell-based; conditions: Homo sapiens, ZR-75-1, 48 h
# From the text: as §2
# SK-BR-3 = assay: Breast cancer cell viability, 48 hours, MTA assay; format: cell-based; conditions: Homo sapiens, SK-BR-3, 48 h
# From the text: as §2
# [3] = tested on: Her2 protein, p-EGFR, p-AKT in MDA-MB-453; assay: Her2 protein, p-EGFR and p-AKT levels after treatment; format: cell-based; conditions: Her2+ breast cancer cell line MDA-MB-453
# [4] = Potentiation of PI3K inhibitor GDC-0941 by HDAC6 selective inhibitors (Example 7); format: cell-based; conditions: non-cytotoxic concentrations of the HDAC6 inhibitor
# [5] = tested on: panel of nearly 100 human tumor cell lines; assay: Anti-tumor activity in a panel of nearly 100 human tumor cell lines; format: cell-based; conditions: Her2+ breast cancer cells versus other major cancer types
# HDAC6 = target: T1, HDAC6 (Homo sapiens, UniProt Q9UBN7); assay: HDAC enzyme assays; format: biochemical
# T1 construct: purchased BPS Biosciences
# T1 sequence (Q9UBN7 whole entry): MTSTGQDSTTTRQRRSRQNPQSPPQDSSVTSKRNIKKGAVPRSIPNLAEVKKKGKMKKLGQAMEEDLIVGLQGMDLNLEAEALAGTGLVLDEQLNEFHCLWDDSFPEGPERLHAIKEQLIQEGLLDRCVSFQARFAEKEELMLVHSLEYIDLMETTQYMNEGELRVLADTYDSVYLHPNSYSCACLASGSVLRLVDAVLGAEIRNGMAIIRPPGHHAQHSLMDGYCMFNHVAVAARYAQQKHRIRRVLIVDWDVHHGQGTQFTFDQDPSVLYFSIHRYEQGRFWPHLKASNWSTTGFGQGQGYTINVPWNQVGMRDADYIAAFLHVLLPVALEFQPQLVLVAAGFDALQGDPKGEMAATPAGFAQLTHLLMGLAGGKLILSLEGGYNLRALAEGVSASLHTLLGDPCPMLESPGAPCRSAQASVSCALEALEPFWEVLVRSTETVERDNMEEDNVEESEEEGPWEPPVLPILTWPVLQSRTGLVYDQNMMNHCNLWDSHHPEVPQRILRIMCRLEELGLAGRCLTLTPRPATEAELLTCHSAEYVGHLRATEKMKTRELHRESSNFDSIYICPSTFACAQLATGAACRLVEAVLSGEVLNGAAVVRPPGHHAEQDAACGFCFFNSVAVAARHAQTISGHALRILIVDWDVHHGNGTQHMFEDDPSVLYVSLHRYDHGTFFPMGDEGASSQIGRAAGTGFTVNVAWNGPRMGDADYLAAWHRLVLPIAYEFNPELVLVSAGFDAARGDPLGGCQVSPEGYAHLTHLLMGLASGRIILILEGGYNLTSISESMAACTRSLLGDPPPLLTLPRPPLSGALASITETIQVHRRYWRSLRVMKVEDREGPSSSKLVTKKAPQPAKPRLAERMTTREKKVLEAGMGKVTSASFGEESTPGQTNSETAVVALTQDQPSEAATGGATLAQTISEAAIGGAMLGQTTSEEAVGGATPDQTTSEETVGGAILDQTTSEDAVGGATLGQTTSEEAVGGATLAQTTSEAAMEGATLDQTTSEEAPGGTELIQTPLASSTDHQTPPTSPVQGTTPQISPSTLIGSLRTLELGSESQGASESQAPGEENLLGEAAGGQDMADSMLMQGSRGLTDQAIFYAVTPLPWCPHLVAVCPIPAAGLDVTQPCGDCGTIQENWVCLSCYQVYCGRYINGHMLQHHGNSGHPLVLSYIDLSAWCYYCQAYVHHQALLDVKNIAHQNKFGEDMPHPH
# Procedure: Compounds for testing were diluted in DMSO to 50 fold the final concentration and a ten point three fold dilution series was made. […] The final enzyme concentrations used in these assays were 3.3 ng/ml (HDAC1), 0.2 ng/ml (HDAC2), 0.08 ng/ml (HDAC3) and 2 ng/ml (HDAC6). […] The IC50 was determined using Graph Pad Prism by a four parameter curve fit.
# [6] = tested on: A549 and MDA-MB-231 cancer cells; assay: Migration assay; format: cell-based; conditions: in the presence or absence of epidermal growth factor (EGF)
# Procedure: Many cultured cancer cells are able to migrate across a membrane and this activity indicates the metastatic potential of the cancer cells. The migration of two cancer cells, A549 and MDA-MB-231, were compared in the presence or absence of a HDAC6 inhibitor. The cancer cells were seeded and grown on a membrane surface, and the cell numbers on the other side of the membrane were counted under a microscope after 12 hours. […] In the study, an HDAC inhibitor was added to the cells either 2 hours before or when the migration was measured. The effect of HDAC6 inhibitor on Epidermal Growth Factor (EGF) stimulated cancer cell migration using 20 ng/ml of EGF in the assay was investigated.
# The protocol for the Migration Assay was as follows. The compounds were prepared in DMSO at 400× stock of the final required concentrations.
# 200 μl of warm basal RPMI1640 medium was added to the interior of the inserts, allowed to rehydrate for 2 hours in a humidified tissue culture incubator at 37° C., 5% CO2 atmosphere. […] The number of migrated cells were counted under a microscope in five fields at 100× magnification. The viable cells were seeded in the 96 well plate with the same treatment as in the migration assay were measured using CTG (Cell Titer Glow).
smiles,measurement,setting,value
"O=C(CCCCCCNC(=O)c1cnc(N(c2ccccc2)c2ccccc2)nc1)NO [Compound A, 2-(diphenylamino)-N-(7-(hydroxyamino)-7-oxoheptyl) pyrimidine-5-carboxamide]",cytotoxicity of HDAC6 inhibitor alone,MDA-MB-453 [1],not cytotoxic
same,cytotoxicity of HDAC6 inhibitor alone,BT-474,not cytotoxic
same,pIC50,T-47D*,5.30
same,pIC50,MDA-MB-361,5.35
same,pIC50,MDA-MB-231,5.13
same,pIC50,MCF-7,5.05
same,pIC50,MDA-MB-468,4.83
same,pIC50,MX-1,5.20
same,pIC50,MDA-MB-436,4.59
same,pIC50,HCC38,5.11
same,pIC50,Hs578T,5.25
same,pIC50,MDA-MB-453 [2],5.90
same,pIC50,BT474,5.63
same,pIC50,Bcap-37,5.12
same,pIC50,BT-549,5.05
same,pIC50,HCC1937,4.95
same,pIC50,ZR-75-1,5.45
same,pIC50,SK-BR-3,5.71
same,"Her2 protein, p-EGFR and p-AKT levels",[3],"decrease of Her2 protein, p-EGFR, and p-AKT"
same,potentiation of GDC-0941 (decrease in the IC50 value),[4],GDC-0941 becomes more potent
same,sensitivity of Her2+ breast cancer cells within the panel,[5],among the most sensitive cells
"O=C(NO)c1cnc(NC2(c3cccc(F)c3)CCCCC2)nc1 [Compound C, 2-((1-(3-fluorophenyl)cyclohexyl)amino)-N-hydroxypyrimidine-5-carboxamide]",potency as HDAC6 selective inhibitor,HDAC6,low nM potency
same,cytotoxicity of HDAC6 inhibitor alone,MDA-MB-453 [1],not cytotoxic
same,sensitization to lapatinib and PI3K inhibitors,"MDA-MB-453 [1]; MDA-MB-453, lapatinib, IPI-145, GDC-0941 and CAL-101",able to sensitize
same,cytotoxicity of HDAC6 inhibitor alone,BT-474,not cytotoxic
same,sensitization to lapatinib and PI3K inhibitors,"BT-474; BT-474, lapatinib, IPI-145, GDC-0941 and CAL-101",able to sensitize
same,cancer cell migration,[6],blocked cancer cell migration
same,potentiation of GDC-0941 (decrease in the IC50 value),[4],GDC-0941 becomes more potent
